US9073918B2, “Pyrazolo[4,3-b]pyridine-7-amine inhibitors of ALK5” (Takeda Pharmaceutical Company Limited, priority 2010, dated 2015)

Experiments:
cellular TGF-β R1 ALK5 = target: T1, cellular TGF-β R1 ALK5 (Homo sapiens, UniProt P36897); assay: Cellular inhibition of ALK5 (CellSensor SBE-bla HEK 293T beta-lactamase reporter); assay type: cell-based; details: cellular inhibition of ALK5, SBE-bla HEK 293T cells, TGFb-1 stimulated 5 hours; average where measured in multiple experiments
T1 construct: host or cells: CellSensor SBE-bla HEK 293T
T1 sequence (P36897 34-503): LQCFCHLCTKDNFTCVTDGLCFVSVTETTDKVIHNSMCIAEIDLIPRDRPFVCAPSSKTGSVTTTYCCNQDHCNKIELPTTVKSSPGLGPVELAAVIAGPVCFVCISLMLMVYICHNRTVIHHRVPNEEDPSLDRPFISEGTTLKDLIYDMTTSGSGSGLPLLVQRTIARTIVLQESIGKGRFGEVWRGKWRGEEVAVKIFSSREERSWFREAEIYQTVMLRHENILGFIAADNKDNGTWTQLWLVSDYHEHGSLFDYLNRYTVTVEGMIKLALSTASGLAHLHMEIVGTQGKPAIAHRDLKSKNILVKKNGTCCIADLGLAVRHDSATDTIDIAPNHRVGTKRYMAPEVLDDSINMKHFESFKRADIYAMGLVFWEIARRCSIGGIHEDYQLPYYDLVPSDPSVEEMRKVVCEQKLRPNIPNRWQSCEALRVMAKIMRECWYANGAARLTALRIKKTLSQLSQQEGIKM
Outline: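 SBE-bla HEK 293T beta-lactamase reporter cells pre-incubated 1 h at 37 °C with 2.5-fold serially diluted compounds (0.5% DMSO), then stimulated 5 h with TGFb-1 (100 ng/mL stock).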

TGF-β R1 ALK5 = target: T2, TGF-β R1 ALK5 (Homo sapiens, UniProt P36897); assay: In vitro inhibition of ALK5 (LanthaScreen activity assay, TR-FRET); assay type: biochemical
T2 construct: purchased Invitrogen PV5837
T2 sequence (P36897 34-503): T1 sequence (P36897 34-503)

| SMILES | IC50 (cellular TGF-β R1 ALK5) | IC50 (TGF-β R1 ALK5) |
| --- | --- | --- |
| Fc1ccc(Cl)cc1-c1cc(Nc2ccnc3cn(CC4CC4)nc23)ccn1 [Example 37, N-(2-(5-chloro-2-fluorophenyl)pyridin-4-yl)-2-(cyclopropylmethyl)-2H-pyrazolo[4,3-b]pyridin-7-amine] | 398 nM | 63.1 nM |
| Cc1cnc(-c2cc(Cl)ccc2F)nc1Nc1ccnc2cn[nH]c12 [Example 1, N-(2-(5-chloro-2-fluorophenyl)-5-methylpyrimidin-4-yl)-1H-pyrazolo[4,3-b]pyridin-7-amine] | 50.1 nM | 10 nM |
| Cc1ccc(F)c(-c2cc(Nc3ccnc4cnn(C[C@@H](C)O)c34)ccn2)n1 [Example 98, (R)-1-(7-(3′-fluoro-6′-methyl-2,2′-bipyridin-4-ylamino)-1H-pyrazolo[4,3-b]pyridin-1-yl)propan-2-ol] | 25.1 nM | 6.31 nM |
| NC(=O)Cn1cc2nccc(Nc3ccnc(-c4cc(Cl)ccc4F)c3)c2n1 [Example 43, 2-(7-(2-(5-chloro-2-fluorophenyl)pyridin-4-ylamino)-2H-pyrazolo[4,3-b]pyridin-2-yl)acetamide] | 100 nM | 7.94 nM |
| Cc1ccc(F)c(-c2cc(Nc3c(F)cnc4cn(C[C@H](C)O)nc34)ccn2)n1 [Example 100A, (S)-1-(6-fluoro-7-(3′-fluoro-6′-methyl-2,2′-bipyridin-4-ylamino)-2H-pyrazolo[4,3-b]pyridin-2-yl)propan-2-ol] | 1260 nM | 398 nM |
| Cc1ccc(F)c(-c2cc(Nc3ccnc4cnn(CCO)c34)c(C)cn2)n1 [Example 10, 2-(7-(3′-fluoro-5,6′-dimethyl-2,2′-bipyridin-4-ylamino)-1H-pyrazolo[4,3-b]pyridin-1-yl)ethanol] | 20 nM | 10 nM |
| CCNC(=O)N1CCC(Cn2cc3nccc(Nc4ccnc(-c5cc(Cl)ccc5F)c4)c3n2)CC1 [Example 28, 4-((7-(2-(5-chloro-2-fluorophenyl)pyridin-4-ylamino)-2H-pyrazolo[4,3-b]pyridin-2-yl)methyl)-N-ethylpiperidine-1-carboxamide] | 2510 nM | 2510 nM |
| Cc1ccc(F)c(-c2cc(Nc3c(F)cnc4cnn(C[C@H](C)O)c34)ccn2)n1 [Example 100B, (S)-1-(6-fluoro-7-(3′-fluoro-6′-methyl-2,2′-bipyridin-4-ylamino)-1H-pyrazolo[4,3-b]pyridin-1-yl)propan-2-ol] | 251 nM | 63.1 nM |
| Cc1ccc(F)c(-c2cc(Nc3ccnc4cnn(C[C@H](C)O)c34)c(C)cn2)n1 [Example 152, (S)-1-(7-(3′-fluoro-5,6′-dimethyl-2,2′-bipyridin-4-ylamino)-1H-pyrazolo[4,3-b]pyridin-1-yl)propan-2-ol] | 100 nM | 7.94 nM |
| Cc1ccc(F)c(-c2cc(Nc3ccnc4cn(C5CC5)nc34)ccn2)n1 [Example 121, 2-cyclopropyl-N-(3′-fluoro-6′-methyl-2,2′-bipyridin-4-yl)-2H-pyrazolo[4,3-b]pyridin-7-amine] | 12.6 nM | 3.16 nM |
| Cc1cccc(-c2cc(Nc3ccnc4cn[nH]c34)c(C)cn2)n1 [Example 6, N-(5,6′-dimethyl-2,2′-bipyridin-4-yl)-1H-pyrazolo[4,3-b]pyridin-7-amine] | 25.1 nM | 5.01 nM |
| Cc1ccc(F)c(-c2cc(Nc3ccnc4cn(CC(O)C(F)(F)F)nc34)ccn2)n1 (centres unmarked) [Example 112, 1,1,1-trifluoro-3-(7-(3′-fluoro-6′-methyl-2,2′-bipyridin-4-ylamino)-2H-pyrazolo[4,3-b]pyridin-2-yl)propan-2-ol] | 501 nM | 63.1 nM |
| Cc1cnc(-c2cc(F)ccc2F)cc1Nc1ccnc2cnn(CC(C)O)c12 (centres unmarked) [Example 144, 1-(7-(2-(2,5-difluorophenyl)-5-methylpyridin-4-ylamino)-1H-pyrazolo[4,3-b]pyridin-1-yl)propan-2-ol] | 20 nM | 2.51 nM |
| COCCCn1cc2nccc(Nc3ccnc(-c4cc(Cl)ccc4F)c3)c2n1 [Example 34, N-(2-(5-chloro-2-fluorophenyl)pyridin-4-yl)-2-(3-methoxypropyl)-2H-pyrazolo[4,3-b]pyridin-7-amine] | 398 nM | 398 nM |
| Cc1ccc(F)c(-c2cc(Nc3ccnc4cnn(C5CC5)c34)ccn2)n1 [Example 133, 1-cyclopropyl-N-(3′-fluoro-6′-methyl-2,2′-bipyridin-4-yl)-1H-pyrazolo[4,3-b]pyridin-7-amine] | 31.6 nM | 5.01 nM |
| COCCCn1ncc2nccc(Nc3ccnc(-c4cc(Cl)ccc4F)c3)c21 [Example 33, N-(2-(5-chloro-2-fluorophenyl)pyridin-4-yl)-1-(3-methoxypropyl)-1H-pyrazolo[4,3-b]pyridin-7-amine] | 200 nM | 200 nM |

| SMILES | IC50 (cellular TGF-β R1 ALK5) | IC50 (TGF-β R1 ALK5) |
| --- | --- | --- |
| Fc1ccc(Cl)cc1-c1cc(Nc2ccnc3cnn(C4CCOCC4)c23)ccn1 [Example 21, N-(2-(5-chloro-2-fluorophenyl)pyridin-4-yl)-1-(tetrahydro-2H-pyran-4-yl)-1H-pyrazolo[4,3-b]pyridin-7-amine] | 794 nM | 100 nM |
| Cc1ccc(F)c(-c2cc(Nc3ccnc4cn([C@@H]5CCOC5)nc34)c(C)cn2)n1 [Example 136, (R)—N-(3′-fluoro-5,6′-dimethyl-2,2′-bipyridin-4-yl)-2-(tetrahydrofuran-3-yl)-2H-pyrazolo[4,3-b]pyridin-7-amine] | 79.4 nM | 6.31 nM |
| Cc1ccc(F)c(-c2cc(Nc3c(F)cnc4cn(CCO)nc34)c(C)cn2)n1 [Example 91, 2-(6-fluoro-7-(3′-fluoro-5,6′-dimethyl-2,2′-bipyridin-4-ylamino)-2H-pyrazolo[4,3-b]pyridin-2-yl)ethanol] | 158 nM | 20 nM |
| CNC(=O)n1ncc2nccc(Nc3ccnc(-c4cc(F)ccc4F)c3)c21 [Example 94, 7-(2-(2,5-difluorophenyl)pyridin-4-ylamino)-N-methyl-1H-pyrazolo[4,3-b]pyridine-1-carboxamide] | 20 nM | 2 nM |
| Cc1ccc(F)c(-c2cc(Nc3ccnc4cn(CC(F)F)nc34)ccn2)n1 [Example 104, 2-(2,2-difluoroethyl)-N-(3′-fluoro-6′-methyl-2,2′-bipyridin-4-yl)-2H-pyrazolo[4,3-b]pyridin-7-amine] | 316 nM | 79.4 nM |
| NC(=O)Cn1ncc2nccc(Nc3ccnc(-c4cc(F)ccc4F)c3)c21 [Example 86, 2-(7-(2-(2,5-difluorophenyl)pyridin-4-ylamino)-1H-pyrazolo[4,3-b]pyridin-1-yl)acetamide] | 158 nM | 50.1 nM |
| Cc1ccc(F)c(-c2cc(Nc3c(F)cnc4cn(CC(N)=O)nc34)c(C)cn2)n1 [Example 88, 2-(6-fluoro-7-(3′-fluoro-5,6′-dimethyl-2,2′-bipyridin-4-ylamino)-2H-pyrazolo[4,3-b]pyridin-2-yl)acetamide] | 158 nM | 10 nM |
| Cc1ccc(F)c(-c2cc(Nc3ccnc4cnn(CC(=O)NC5CC5)c34)c(C)cn2)n1 [Example 117, N-cyclopropyl-2-(7-(3′-fluoro-5,6′-dimethyl-2,2′-bipyridin-4-ylamino)-1H-pyrazolo[4,3-b]pyridin-1-yl)acetamide] | 126 nM | 10 nM |
| Cc1cnc(-c2cc(F)ccc2F)cc1Nc1ccnc2cn[nH]c12 [Example 108, N-(2-(2,5-difluorophenyl)-5-methylpyridin-4-yl)-1H-pyrazolo[4,3-b]pyridin-7-amine] | 7.94 nM | 1 nM |
| Cc1cnc(-c2cc(F)ccc2F)nc1Nc1ccnc2cn[nH]c12 [Example 96, N-(2-(2,5-difluorophenyl)-5-methylpyrimidin-4-yl)-1H-pyrazolo[4,3-b]pyridin-7-amine] | 63.1 nM | 20 nM |
| Cc1ccc(F)c(-c2cc(Nc3ccnc4cnn(CC(O)C(F)(F)F)c34)ccn2)n1 (centres unmarked) [Example 113, 1,1,1-trifluoro-3-(7-(3′-fluoro-6′-methyl-2,2′-bipyridin-4-ylamino)-1H-pyrazolo[4,3-b]pyridin-1-yl)propan-2-ol] | 1580 nM | 50.1 nM |
| Fc1ccc(Cl)cc1-c1cc(Nc2ccnc3cn[nH]c23)ccn1 [Example 17, N-(2-(5-chloro-2-fluorophenyl)pyridin-4-yl)-1H-pyrazolo[4,3-b]pyridin-7-amine] | 50.1 nM | 5.01 nM |
| CCNC(=O)n1ncc2nccc(Nc3nc(-c4cc(F)ccc4F)ncc3C)c21 [Example 97, 7-(2-(2,5-difluorophenyl)-5-methylpyrimidin-4-ylamino)-N-ethyl-1H-pyrazolo[4,3-b]pyridine-1-carboxamide] | 398 nM | 15.8 nM |
| CCNC(=O)n1ncc2nccc(Nc3nc(-c4cc(F)ccc4F)nc(C)c3C)c21 [Example 92, 7-(2-(2,5-difluorophenyl)-5,6-dimethylpyrimidin-4-ylamino)-N-ethyl-1H-pyrazolo[4,3-b]pyridine-1-carboxamide] | 501 nM | 79.4 nM |
| CCNC(=O)n1ncc2nccc(Nc3ccnc(-c4cc(F)ccc4F)c3)c21 [Example 93, 7-(2-(2,5-difluorophenyl)pyridin-4-ylamino)-N-ethyl-1H-pyrazolo[4,3-b]pyridine-1-carboxamide] | 25.1 nM | 5.01 nM |
